Structures can show the parent of a compound that is named as a salt.
Biological target: CYP2D6 (Homo sapiens (Human), UniProt P10635)
Test: Inhibition of Cytochrome P4502D6 (CYP2D6) using Supersomes
Format: in vitro ADME
Conditions: AMMC substrate, read-out: IC50 (Fluorinated derivative)
Protocol: The inhibition of Cytochrome P4502D6 (CYP2D6) is assessed by performing in vitro inhibition studies using Supersomes, microsomes derived from baculovirus infected insect cells; the baculoviruses are engineered to express one or more drug metabolizing enzyme cDNAs. Supersomes catalyze the same enzymatic reactions as human liver microsome enzymes, but they contain much higher enzyme activity than other microsome sources (Crespi C. L. and Penman B. W., Advances Pharmacology, 43, 171-188 (1997); Crespi C. L. and Miller V. P., Analytical Biochemistry, 248, 188-190 (1997)).
Kits with Supersomes are Supplied by GENTEST (MA, USA).
Test compound is dissolved in DMSO 500× the highest final concentration desired in the IC50 assay. 30 ml of deionized water is pre-warmed to 37° C. and all kit components are placed on ice. For each well of column 1, 149.4 μL of NADPH-Cofactor Mix, (187.5 μl of Cofactors, 150 μl of G6PDH, 100 μl of Control Protein and 14.56 ml of 37° C. water) are added.
In each well from Column 2 to 12, 100 μl of Cofactor/DMSO mix (40 μL DMSO in 9.96 ml of NADPH-Cofactor Mix) are added. To each well of column 1, 0.6 μl of test compound or positive control are added. 50 μl from each well of column 1 are serially diluted to column 8. The extra 50 μl from column 8 are discarded. The plate is covered and pre-incubated at 37° C. for 10 minutes.
Preparation of enzyme/substrate mix: 7.92 ml of pre-warmed deionized water, 75 μl of enzyme, 3 μl of 10 mM AMMC and 2 ml of pre-warmed buffer are mixed.
After the pre-incubation time (10′), 100 μl of enzyme/substrate mix to each well from column 1 to 10 are added. The plate is incubated at 37° C. for 30 minutes. After this time, 75 μl of Stop Reagent to each well are added. For blank controls, 100 μl of enzyme/substrate mix are added to columns 11 and 12.
Plates are read at the Victor plate reader (Perkin Elmer, MA—USA) at 390 nm excitation and 460 nm emission wavelengths.

Sequence of CYP2D6 (P10635 whole entry): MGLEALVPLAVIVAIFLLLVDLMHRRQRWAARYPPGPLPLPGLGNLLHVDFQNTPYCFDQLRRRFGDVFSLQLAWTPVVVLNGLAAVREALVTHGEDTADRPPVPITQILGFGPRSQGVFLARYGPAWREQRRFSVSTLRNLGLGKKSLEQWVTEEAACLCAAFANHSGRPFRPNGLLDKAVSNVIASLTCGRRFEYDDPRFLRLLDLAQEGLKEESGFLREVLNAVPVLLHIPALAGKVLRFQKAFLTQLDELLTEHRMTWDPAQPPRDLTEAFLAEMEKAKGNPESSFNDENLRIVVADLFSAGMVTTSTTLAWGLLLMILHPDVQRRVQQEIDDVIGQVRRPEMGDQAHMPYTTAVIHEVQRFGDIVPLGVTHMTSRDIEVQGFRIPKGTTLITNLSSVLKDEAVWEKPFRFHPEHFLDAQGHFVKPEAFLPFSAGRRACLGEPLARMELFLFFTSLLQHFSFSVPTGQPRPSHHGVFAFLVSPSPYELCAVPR

Row | Compound | IC50
1 | CCCCCOc1cccc(C(F)(F)CNCC(=O)N(C)C)c1 [Example 1-2, 2-[2,2-Difluoro-2-(3-pentyloxyphenyl)-ethylamino]-N,N-dimethyl-acetamide, hydrochloride] | > 40 µM
2 | CCCCOc1cccc(C(F)(F)CNCC(=O)N(CCC)CCC)c1 [Example 1-3, 2-[2,2-Difluoro-2-(3-butoxyphenyl)-ethylamino]-N,N-dipropyl-acetamide, hydrochloride] | 23.9 µM
3 | O=C(CNCC(F)(F)c1cccc(OCCCC(F)(F)F)c1)N1CCOCC1 [Example 1-21, 2-{2,2-Difluoro-2-[3-(4,4,4-trifluorobutoxy)-phenyl]-ethylamino}-1-(morpholin-4-yl)-ethanone, hydrochloride] | > 40 µM
4 | CCCCOc1cccc(C(F)(F)CNC(C)C(=O)N(C)C)c1 (stereo not drawn) [Example 2-1, 2-[2,2-Difluoro-2-(3-butoxyphenyl)-ethylamino]-N,N-dimethyl-propanamide, hydrochloride] | > 40 µM

Same assay, conditions: AMMC substrate, reference standards of the closest prior art, read-out: IC50 (Corresponding de-fluorinated derivative)

Row | Compound | IC50
5 | CN(C)C(=O)CNCCc1cccc(OCc2ccccc2)c1 [2-[2-(3-Benzyloxyphenyl)-ethylamino]-N,N-dimethyl-acetamide, hydrochloride] | 10.6 µM
6 | CCCCOc1cccc(CCNCC(=O)N2CCCCC2)c1 [2-[2-(3-Butoxyphenyl)-ethylamino]-1-(piperidin-1-yl)-ethanone, hydrochloride] | 1.1 µM
7 | CCCCOc1cccc(CCNCC(=O)N2CCCC2)c1 [2-[2-(3-Butoxyphenyl)-ethylamino]-1-(pyrrolidin-1-yl)-ethanone, hydrochloride] | 3 µM
8 | CCCCOc1cccc(CCNCC(=O)N(CC)CC)c1 [2-[2-(3-Butoxyphenyl)-ethylamino]-N,N-diethyl-acetamide, hydrochloride] | 2.5 µM
9 | CCCCOc1cccc(CCNCC(=O)N(C)C)c1 [2-[2-(3-Butoxyphenyl)-ethylamino]-N,N-dimethyl-acetamide, hydrochloride] | 5.8 µM
10 | CCCCOc1cccc(CCNC(C)C(=O)N(C)C)c1 (stereo not drawn) [2-[2-(3-Butoxyphenyl)-ethylamino]-N,N-dimethyl-propanamide, hydrochloride] | 5.8 µM
11 | CCCCOc1cccc(CCNCC(=O)N(CCC)CCC)c1 [2-[2-(3-Butoxyphenyl)-ethylamino]-N,N-dipropyl-acetamide, hydrochloride] | 0.7 µM
12 | CCCCCCOc1cccc(CCNCC(=O)N(C)C)c1 [2-[2-(3-Hexyloxyphenyl)-ethylamino]-N,N-dimethyl-acetamide, hydrochloride] | 0.9 µM
13 | CCCCCOc1cccc(CCNCC(=O)N(C)C)c1 [2-[2-(3-Pentyloxyphenyl)-ethylamino]-N,N-dimethyl-acetamide, hydrochloride] | 3.5 µM
14 | O=C(CNCCc1cccc(OCCCC(F)(F)F)c1)N1CCCC1 [2-{2-[3-(4,4,4-trifluorobutoxy)-phenyl]-ethylamino}-1-(pyrrolidin-1-yl)-ethanone, hydrochloride] | 5 µM
15 | O=C(CNCCc1cccc(OCCCC(F)(F)F)c1)N1CCOCC1 [2-{2-[3-(4,4,4-trifluorobutoxy)phenyl]-ethylamino}-1-(morpholin-4-yl)-ethanone, hydrochloride] | 1.8 µM
16 | CCCCOc1cccc(CCN(CCOC)CC(=O)N(C)C)c1 [2-{[2-(3-Butoxyphenyl)-ethyl]-(2-methoxyethyl)-amino}-N,N-dimethyl-acetamide, hydrochloride] | 3.4 µM
17 | CCCCOc1cccc(CCN(CCCOC)CC(=O)N(C)C)c1 [2-{[2-(3-Butoxyphenyl)-ethyl]-(3-methoxypropyl)-amino}-N,N-dimethyl-acetamide, hydrochloride] | 7.3 µM

Test system: TTXs sodium channels (ND7/23 cells)
Test: TTXs-sodium channel influx assay (fluorescence, membrane potential kit)
Format: cell-based, rat
Conditions: veratridine 100 μM
Protocol: ND7/23 rat dorsal root ganglion-derived cell line endogenously expresses a mixed population of TTXs sodium channels (such as Nav1.3, Nav1.2, Nav1.1, Nav1.6). These cells lack of TTXr sodium channels as shown by the absence of their respective transcripts. ND7/23 cells are grown in Dulbecco's Modified Eagle Medium (DMEM, Invitrogen, CA—USA) supplemented with 10% Foetal Bovine Serum (FBS, Invitrogen, CA—USA) and 1 mM sodium piruvate. The cells are seeded at 50,000 cells/well on 96 poly-L-lysine-coated plates and further incubated for 18-24 h before use.
The Membrane Potential Kit Assay (Molecular Devices, CA—USA), based on a negatively charged fluorescent dye able to monitor changes in membrane potential caused by the sodium influx due to the channel opening, is used for the assay.
Cells are incubated with the dye loading for 30 minutes at 25° C. Then, 100 nM of the toxin Anemonia sulcata (used as enhancer of the channel opener response) alone or in the presence of TTX (as reference standard) or test compound are added for further 15 minutes.
The fluorescence (excitation: 530 nm, emission: 565 nm wavelength) is measured before and after (40-45 s) the automated injection of the sodium channel opener veratridine (100 μM) using a Victor plate reader (Perkin Elmer, MA—USA).
The inhibition curves are calculated from 5 concentrations, each in triplicate, and the IC50 determined using a linear regression analysis.
The results, obtained with some compounds which are representative of the entire class of compounds of the invention are reported in Table 1.

Row | Compound | IC50
18 | CCCCOc1cccc(C(F)(F)CNCC(=O)N(C)C)c1 [Example 1-1, 2-[2,2-Difluoro-2-(3-butoxyphenyl)-ethylamino]-N,N-dimethyl-acetamide, hydrochloride] | 1 µM
19 | CCCCCOc1cccc(C(F)(F)CNCC(=O)N(C)C)c1 [Example 1-2, 2-[2,2-Difluoro-2-(3-pentyloxyphenyl)-ethylamino]-N,N-dimethyl-acetamide, hydrochloride] | 1.3 µM
20 | CCCCOc1cccc(C(F)(F)CNCC(=O)N(CCC)CCC)c1 [Example 1-3, 2-[2,2-Difluoro-2-(3-butoxyphenyl)-ethylamino]-N,N-dipropyl-acetamide, hydrochloride] | 0.58 µM
21 | CCCCCCOc1cccc(C(F)(F)CNCC(=O)N(C)C)c1 [Example 1-6, 2-[2,2-Difluoro-2-(3-hexyloxyphenyl)-ethylamino]-N,N-dimethyl-acetamide, hydrochloride] | 0.14 µM
22 | CN(C)C(=O)CNCC(F)(F)c1cccc(OCCCC(F)(F)F)c1 [Example 1-7, 2-{2,2-Difluoro-2-[3-(4,4,4-trifluorobutoxy)-phenyl]-ethylamino}-N,N-dimethyl-acetamide, hydrochloride] | 3.6 µM
23 | CN(C)C(=O)CNCC(F)(F)c1cccc(OCc2ccccc2)c1 [Example 1-14, 2-[2,2-Difluoro-2-(3-benzyloxyphenyl)-ethylamino]-N,N-dimethyl-acetamide, hydrochloride] | 1.2 µM
24 | CCCCOc1cccc(C(F)(F)CNCC(=O)N2CCCC2)c1 [Example 1-15, 2-[2,2-Difluoro-2-(3-butoxyphenyl)-ethylamino]-1-(pyrrolidin-1-yl)-ethanone, hydrochloride] | 1.1 µM
25 | O=C(CNCC(F)(F)c1cccc(OCCCC(F)(F)F)c1)N1CCCC1 [Example 1-18, 2-{2,2-Difluoro-2-[3-(4,4,4-trifluorobutoxy)-phenyl]-ethylamino}-1-(pyrrolidin-1-yl)-ethanone] | 0.95 µM
26 | O=C(CNCC(F)(F)c1cccc(OCCCC(F)(F)F)c1)N1CCOCC1 [Example 1-21, 2-{2,2-Difluoro-2-[3-(4,4,4-trifluorobutoxy)-phenyl]-ethylamino}-1-(morpholin-4-yl)-ethanone, hydrochloride] | 7.2 µM
27 | CCCCOc1cccc(C(F)(F)CNCC(=O)N2CCN(C)CC2)c1 [Example 1-26, 2-[2,2-Difluoro-2-(3-butoxyphenyl)-ethylamino]-1-(4-methylpiperazin-1-yl)-ethanone, hydrochloride] | 23.2 µM
28 | CN1CCN(C(=O)CNCC(F)(F)c2cccc(OCCCC(F)(F)F)c2)CC1 [Example 1-28, 2-{2,2-Difluoro-2-[3-(4,4,4-trifluorobutoxy)-phenyl)-ethylamino}-1-(4-methylpiperazin-1-yl)-ethanone, hydrochloride] | 3.2 µM
29 | CCCCOc1cccc(C(F)(F)CNCC(=O)N2CCCCC2)c1 [Example 1-29, 2-[2,2-Difluoro-2-(3-butoxyphenyl)-ethylamino]-1-(piperidin-1-yl)-ethanone, hydrochloride] | 1.8 µM
30 | CCCCOc1cccc(C(F)(F)CNCC(=O)N(CC)CC)c1 [Example 1-32, 2-[2,2-Difluoro-2-(3-butoxyphenyl)-ethylamino]-N,N-diethyl-acetamide, hydrochloride] | 2.8 µM
31 | CCCCOc1cccc(C(F)(F)CNCC(=O)N2CCC2)c1 [Example 1-42, 2-[2,2-Difluoro-2-(3-butoxyphenyl)-ethylamino)-1-(azetidin-1-yl)-ethanone, hydrochloride] | 5 µM
32 | CCCCOc1cccc(C(F)(F)CNC(C)C(=O)N(C)C)c1 (stereo not drawn) [Example 2-1, 2-[2,2-Difluoro-2-(3-butoxyphenyl)-ethylamino]-N,N-dimethyl-propanamide, hydrochloride] | 20 µM
33 | CCCCOc1cccc(C(F)(F)CNC(COC)C(=O)N(C)C)c1 (stereo not drawn) [Example 2-2, 2-[2,2-Difluoro-2-(3-butoxyphenyl)-ethylamino]-3-methoxy-N,N-dimethyl-propanamide] | 6.2 µM
34 | CCCCOc1cccc(C(F)(F)CN(C)CC(=O)N(C)C)c1 [Example 3-1, 2-{[2,2-Difluoro-2-(3-butoxyphenyl)-ethyl]-methylamino}-N,N-dimethyl-acetamide, hydrochloride] | 2.3 µM
35 | CCCCOc1cccc(C(F)(F)CN(CCOC)CC(=O)N(C)C)c1 [Example 3-3, 2-{[2,2-Difluoro-2-(3-butoxyphenyl)-ethyl]-(2-methoxyethyl)-amino}-N,N-dimethyl-acetamide, hydrochloride] | 1.4 µM
36 | CCCCOc1cccc(C(F)CNCC(=O)N(C)C)c1 (stereo not drawn) [Example 4-1, 2-[2-Fluoro-2-(3-butoxyphenyl)-ethylamino]-N,N-dimethyl-acetamide, hydrochloride] | 1.5 µM

Source: patent US9447029B2, “Fluorinated arylalkylaminocarboxamide derivatives” (NEWRON PHARMACEUTICALS S.P.A., priority 2011, dated 2016)
